Assay results published in patent publication US20040229207A1 (priority 1999, published 2004).

system: LAB-1; test: Antibiotic sensitivity testing of LAB-1; type: cell-based; conditions: not given
Protocol: A variety of biochemical tests were performed in order to identify the species and the genus of organism. The tests included: assessment of growth conditions, culture appearance, cell appearance and staining characteristics, optimal temperature and pH growth range, oxygen requirements, antibiotic sensitivity testing, tests for catalase and oxidase (using TAXOS N™ disks), amino acid utilization as carbon source, nitrogen fixation, motility test, and a variety of commercially available tests from MICRO-ID™, OXYFERM™, ENTEROTUBE™ and BIOLOG GN MICROPLATE™.

Row | Compound | Antibiotic Susceptibility
1 | NCC[C@H](O)C(=O)N[C@@H]1C[C@H](N)[C@@H](O[C@H]2O[C@H](CN)[C@@H](O)[C@H](O)[C@H]2O)[C@H](O)[C@H]1O[C@H]1O[C@H](CO)[C@@H](O)[C@H](N)[C@H]1O [Amikacin] | sensitive
2 | CC1(C)S[C@@H]2[C@H](NC(=O)[C@H](N)c3ccccc3)C(=O)N2[C@H]1C(=O)O [Ampicillin] | resistant
3 | CC[C@H]1OC(=O)[C@H](C)[C@@H](O[C@H]2C[C@@](C)(OC)[C@@H](O)[C@H](C)O2)[C@H](C)[C@@H](O[C@@H]2O[C@H](C)C[C@H](N(C)C)[C@H]2O)[C@](C)(O)C[C@@H](C)C(=O)[C@H](C)[C@@H](O)[C@]1(C)O [Erythromycin] | resistant
4 | CO[C@@H]1[C@@H](OC(N)=O)[C@@H](O)[C@H](Oc2ccc3c(O)c(NC(=O)c4ccc(O)c(CC=C(C)C)c4)c(=O)oc3c2C)OC1(C)C [Novobiocin] | sensitive
5 | [H]/N=C(/N)N[C@H]1[C@H](O)[C@@H](O)[C@H](O[C@@H]2O[C@@H](C)[C@](O)(C=O)[C@H]2O[C@@H]2O[C@@H](CO)[C@H](O)[C@@H](O)[C@@H]2NC)[C@@H](N/C(N)=N\[H])[C@@H]1O [Streptomycin] | resistant
6 | Neomycin | sensitive
7 | Penicillin | resistant
8 | Polymyxin B | sensitive

system: LAB-1 strain; test: Inhibition of LAB-1 growth, cell attachment and biofilm production in growth media; type: cell-based; conditions: 0.1-1.0% (w/v) in liquid or solid growth media
Source text: It would be apparent to one of ordinary skill in the art to apply the above methods to inhibit the production of mucoid compounds and biofilm in any mucoid organism.

Row | Compound | growth, development, cell attachment and biofilm production of LAB-1
9 | CC(C)Cc1ccc(C(C)C(=O)O)cc1 (stereo not shown) [ibuprofen, 2-(4-isobutylphenyl)-propionic acid] | differentially inhibits
10 | CCC(=O)O [propionic acid] | differentially inhibits
